According to patent US20060069123A1, “Substituted dipiperidine CCR2 antagonists” (priority 2004, published 2006):
pIC50: −log10 of the molar value. Like-named read-outs stand apart in the source and are kept apart here.

Legend:
BALB/c female mice = test: Mouse Model of Allergic Asthma; type: in vivo; conditions: 100 mg/kg ip
Source text: Mouse Model of Allergic Asthma: An allergic asthma model in mice was used to test compounds of the invention for therapeutic effect on asthmatic response as a function of airway inflammation and hyperresponsiveness ([…], et al., J. Phar. Exp. Ther., 2000, 295: 912-926). Airway hyperresponsiveness in asthmatic patients is a cardinal feature of allergic asthma and is maintained as a result of persistent airway inflammation. Eosinophils are the prominent cells involved in airway inflammation and are found in large numbers in sputum and bronchoalveolar lavage fluids. Airway responsiveness was measured in unrestrained mice by noninvasive whole body plethysmography using a BioSystem plethysmography instrument (BUXCO, Troy, N.Y.). Each animal was individually placed in the plethysmography instrument chamber and chamber pressure was used as a measure of the difference between thoracic volume expansion or contraction and air volume removed or added to the chamber during breathing. The differential of this function with respect to time produced a pseudo flow value that was proportionate to the difference between the rate of the thoracic volume expansion and nasal air flow (Hamelmann, et al., J. Respir. Crit. Care Med., 1997, 156: 766-775). Three treatment groups of BALB/c female mice (6-8 weeks old) were tested in the 32 day study: • Group 1: vehicle control phosphate buffered saline (PBS)-sensitized and PBS-challenged mice; • Group 2: positive control ovalbumin (OVA)-sensitized and OVA-challenged mice; and, • Group 3: OVA-sensitized and OVA-challenged mice treated with Compound 13. […] • Group 1 mice were sensitized by injection (ip) with PBS; and, • Group 2 mice were OVA sensitized by injection (ip) with OVA (20 μg) dissolved in PBS adsorbed on 2.25 mg alum. […] Day 32: The three treatment groups were challenged via airway by means of methacholine inhalation and asthmatic response was measured as a function of airway hyper-responsiveness. A baseline reading over a 5 min period for each of the mice in the three treatment groups was taken in the plethysmography instrument, then the baseline readings were averaged. • Group 1 mice were nebulized with saline at increasing doses (1-30 mg/ml) over a 2 min period. • Group 2 (first subset) and Group 3 mice were nebulized with methacholine at increasing doses (1-30 mg/ml) over a 2 min period. Post-Challenge Phase A 5 min post-challenge reading for each of the mice was taken and the readings were averaged. Reduction in airway hyperresponsiveness was calculated according to the following formula: [formula] Airway inflammation was measured by eosinophil cell count in bronchoalveolar saline lavage samples (1 mL) of the mice from the three groups. […] The number of eosinophils was counted and the cell concentration adjusted to 0.1×10^6/mL.

THP-1 cells [1] = test: MCP-1 Induced Chemotaxis in THP-1 Cells; type: cell-based; conditions: Homo sapiens, read-out: Inhibition of MCP-1 Induced Chemotaxis IC50
Lewis rats [2] = test: Adjuvant-Induced Arthritis Model (Therapeutic Dosing from Day 12-16); type: in vivo
Source text: Adjuvant-Induced Arthritis Model (Therapeutic Dosing from Day 12-16)

DBA1 mice = conditions: 100 mg/kg ip, bid, day 20 to day 35, in either vehicle
Protocol: Collagen-Induced Arthritis Model
In a collagen-induced arthritis model in mice, DBA1 mice were immunized with bovine type II collagen on day 0, injected (sc) with lipopolysaccharide (LPS) on day 21, and dosed (ip, bid) with a test compound at either 25, 50 or 100 mg/kg from day 20 to day 35. Body weight was monitored, and clinical disease score recorded every 2-3 days starting on day 20.
Test compound was dosed in one of two vehicles:
• 1) 10% Pharmasolve:20% PEG-400:70% of a 1% solution of Tween-80 in water; or, • 2) 30% PEG400:20% Solutol:50% of a 0.1 N solution of NaHCO3.

THP-1 cells [3] = conditions: Homo sapiens; for pIC50: THP-1, read-out: Inhibition of MCP-1 Induced Calcium Ion Influx IC50
Lewis rats [4] = system: Lewis rats
CCR2 = target: T1, CCR2 (Homo sapiens, UniProt P41597)
T1 sequence (P41597 1-360 isoform P41597-2): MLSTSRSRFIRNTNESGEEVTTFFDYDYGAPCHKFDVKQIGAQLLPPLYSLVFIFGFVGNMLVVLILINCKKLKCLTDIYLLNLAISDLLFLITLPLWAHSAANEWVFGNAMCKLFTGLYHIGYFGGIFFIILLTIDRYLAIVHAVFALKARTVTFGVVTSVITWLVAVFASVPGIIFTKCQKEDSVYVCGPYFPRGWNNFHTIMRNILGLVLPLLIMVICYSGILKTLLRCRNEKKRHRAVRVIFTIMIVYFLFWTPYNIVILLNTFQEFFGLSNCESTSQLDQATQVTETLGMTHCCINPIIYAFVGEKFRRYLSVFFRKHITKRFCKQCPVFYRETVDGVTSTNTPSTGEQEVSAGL

[5] = OVA-sensitized and OVA-challenged mice
[6] = orally, once per day, 3 mg/kg (positive control), therapeutic study
[7] = orally, once per day, 3 mg/kg, days 10-14 (positive control)
[8] = THP-1 cells, MCP-1 0.01 μg/mL, 3 hours

Row | Compound | pIC50 (THP-1 cells [3]) | pIC50 (THP-1 cells [1]; [8]) | pIC50 (CCR2) | further results
1 | O=C(O)[C@H](C1CCN(C(=O)/C=C/c2cc(F)c(F)c(F)c2)CC1)N1CCC(c2c[nH]c3ccccc23)CC1 [Cpd 13, (S)-{[4-(1H-indol-3-yl)-piperidin-1-yl]}-{1-[(2E)-3-(3,4,5-trifluoro-phenyl)-acryloyl]-piperidin-4-yl}-acetic acid] | – | – | – | Airway Hyperresponsiveness (whole body plethysmography reading) (BALB/c female mice; Group 3: OVA-sensitized and OVA-challenged mice, methacholine challenge day 32, n=4): 1147±49; Eosinophil Infiltration (eosinophil cell count in bronchoalveolar lavage) (BALB/c female mice; Group 3: OVA-sensitized and OVA-challenged mice, n=3): 0.2±0.1 ×10^5/ml; reduction in airway hyperresponsiveness compared to the non-treated mice (BALB/c female mice; [5]): ~36%; reduction in airway inflammation compared to the non-treated mice (BALB/c female mice; [5]): 75%
2 | O=C(O)C(C1CCN(C(=O)/C=C/c2cc(F)c(F)c(F)c2)CC1)N1CCC(c2c[nH]c3ccccc23)CC1 (stereo not drawn) [Cpd 6, [4-(1H-indol-3-yl)-piperidin-1-yl]-{1-[(2E)-3-(3,4,5-trifluoro-phenyl)-acryloyl]-piperidin-4-yl}-acetic acid] | 8.30 | – | – | pIC50 (THP-1 cells [1]; THP-1, 3 h): 8.10; decreased swelling in the injected paw (Lewis rats [2]; ip, bid, 100 mg/kg, days 12-16): 40%; inhibited contralateral paw swelling (Lewis rats [2]; ip, bid, 100 mg/kg, days 12-16): 51%; inhibited the development of arthritis (clinical disease score on day 35) (DBA1 mice): greater than 90%; decrease in swelling in the injected paws (Lewis rats [4]; ip, bid, 100 mg/kg, days 0-14): 40%; swelling of the contralateral paws (Lewis rats [4]; ip, bid, 100 mg/kg, days 0-14): insignificant swelling
3 | COc1ccc2c(c1)c(CC(=O)O)c(C)n2C(=O)c1ccc(Cl)cc1 [Indomethacin, indomethacin, reference compound] | – | – | – | inhibited adjuvant-injected paw swelling (Lewis rats [2]; [6]): 40%; inhibited contralateral paw swelling (Lewis rats [2]; [6]): 69%; inhibited contralateral paw swelling (Lewis rats [4]; [7]): 72%; inhibited swelling in the adjuvant-injected paws (Lewis rats [4]; [7]): 38%
4 | Nc1ccc2[nH]cc(C3CCN(C(C(=O)O)C4CCN(C(=O)/C=C/c5cc(F)c(F)c(F)c5)CC4)CC3)c2n1 (stereo not drawn) [Cpd 178, [4-(5-amino-1H-pyrrolo[3,2-b]pyridin-3-yl)-piperidin-1-yl]-{1-[(2E)-3-(3,4,5-trifluoro-phenyl)-acryloyl]-piperidin-4-yl}-acetic acid] | 5.63 | 6.74 | 7.05 | –
5 | O=C(O)C(C1CCN(C(=O)Nc2ccc(Br)cc2)CC1)N1CCC(c2c[nH]c3ccccc23)CC1 (stereo not drawn) [Cpd 89, [1-(4-bromo-phenylcarbamoyl)-piperidin-4-yl]-[4-(1H-indol-3-yl)-piperidin-1-yl]-acetic acid] | 6.33 | 6.68 | 7.02 | –
6 | Cc1cc(NC(=O)N2CCC(C(C(=O)O)N3CCC(c4c[nH]c5ccccc45)CC3)CC2)ccc1Br (stereo not drawn) [Cpd 101, [1-(4-bromo-3-methyl-phenylcarbamoyl)-piperidin-4-yl]-[4-(1H-indol-3-yl)-piperidin-1-yl]-acetic acid] | 6.89 | 6.85 | 7.70 | –
7 | Nc1cc2c(C3CCN(C(C(=O)O)C4CCN(C(=O)/C=C/c5cc(F)c(F)c(F)c5)CC4)CC3)c[nH]c2cn1 (stereo not drawn) [Cpd 179, [4-(5-amino-1H-pyrrolo[2,3-c]pyridin-3-yl)-piperidin-1-yl]-{1-[(2E)-3-(3,4,5-trifluoro-phenyl)-acryloyl]-piperidin-4-yl}-acetic acid] | 5.69 | 6.85 | 6.64 | –
8 | O=C(/C=C/c1cc(F)c(F)c(F)c1)N1CCC(C(CO)N2CCC(c3ccc4c(c3)OCO4)CC2)CC1 (stereo not drawn) [Cpd 189, (2E)-1-{4-[1-(4-benzo[1,3]dioxol-5-yl-piperidin-1-yl)-2-hydroxy-ethyl]-piperidin-1-yl}-3-(3,4,5-trifluoro-phenyl)-propenone] | 6.80 | 6.14 | 6.77 | –
9 | O=C(/C=C/c1ccc(Cl)c(Cl)c1)N1CCC(C(CO)N2CCC(c3ccncc3)CC2)CC1 (stereo not drawn) [Cpd 185, (2E)-3-(3,4-dichloro-phenyl)-1-{4-[2-hydroxy-1-(3,4,5,6-tetrahydro-2H-[4,4′]bipyridinyl-1-yl)-ethyl]-piperidin-1-yl}-propenone] | 5.34 | 6.47 | 6.08 | –
10 | CC(=O)NCC(C1CCN(C(=O)/C=C/c2cc(F)cc(F)c2)CC1)N1CCC(c2c[nH]c3ccccc23)CC1 (stereo not drawn) [Cpd 214, N-{2-{1-[(2E)-3-(3,5-difluoro-phenyl)-acryloyl]-piperidin-4-yl}-2-[4-(1H-indol-3-yl)-piperidin-1-yl]-ethyl}-acetamide] | 6.74 | 6.72 | 7.15 | –
11 | O=C(O)C(C1CCN(C(=O)Nc2cccc(C(F)(F)F)c2)CC1)N1CCC(c2c[nH]c3ccccc23)CC1 (stereo not drawn) [Cpd 97, [4-(1H-indol-3-yl)-piperidin-1-yl]-[1-(3-trifluoromethyl-phenylcarbamoyl)-piperidin-4-yl]-acetic acid] | 6.01 | 6.64 | 6.60 | –
12 | O=C(/C=C/c1cc(F)c(F)c(F)c1)N1CCC(C(CO)N2CCC(c3cc[nH]n3)CC2)CC1 (stereo not drawn) [Cpd 156, (2E)-1-(4-{2-hydroxy-1-[4-(1H-pyrazol-3-yl)-piperidin-1-yl]-ethyl}-piperidin-1-yl)-3-(3,4,5-trifluoro-phenyl)-propenone] | – | 6.92 | 7.10 | inhibition at 25 µM (THP-1 cells [3]; THP-1, read-out: Inhibition of MCP-1 Induced Calcium Ion Influx, percent inhibition): 50%
13 | O=C(/C=C/c1cc(F)cc(F)c1)N1CCC(C(CO)N2CCC(c3c[nH]c4ncccc34)CC2)CC1 (stereo not drawn) [Cpd 202, (2E)-3-(3,5-difluoro-phenyl)-1-(4-{2-hydroxy-1-[4-(1H-pyrrolo[2,3-b]pyridin-3-yl)-piperidin-1-yl]-ethyl}-piperidin-1-yl)-propenone] | 8.10 | 7.82 | 7.71 | –
14 | COc1ccc(C2CCN(C(CO)C3CCN(C(=O)/C=C/c4ccc(Cl)c(Cl)c4)CC3)CC2)cc1 (stereo not drawn) [Cpd 139, (2E)-3-(3,4-dichloro-phenyl)-1-(4-{2-hydroxy-1-[4-(4-methoxy-phenyl)-piperidin-1-yl]-ethyl}-piperidin-1-yl)-propenone] | 7.40 | 7.30 | 7.70 | –
